Source: patent publication EP4744680A1, “TARGETED CHEMICAL DRUG AND PREPARATION METHOD THEREFOR, PHARMACEUTICAL COMPOSITION, AND USE OF TARGETED CHEMICAL DRUG” (Bai Yao Zhi Da (Beijing) Nanobio Technology Co., Ltd., priority 2023, dated 2025)

Assays:
[1] = Body weight and general condition in the U251 study; type: in vivo, mouse (BALB/c nude); conditions: 15mg/Kg intraperitoneal daily for 4 weeks
Experimental: The relationship between body weight change and the dosing regimen is recorded.Survival and health status are also monitored, including activity levels and food intake during the dosing period. • c) Tumor and Organ Imaging: At the end of the dosing period, mice are euthanized, and their brain, heart, liver, spleen, lungs, and kidneys are excised.

[2] = tested on: U251-RFP human glioma; assay: In-vivo efficacy study in the U251-RFP human glioma orthotopic mouse model (drug of Example 9); parameters: species or system mouse (BALB/c nude); conditions: 15mg/Kg intraperitoneal daily for 4 weeks
Text: 2.Dosing regimen: Table 41

SMILES: Cn1nnc2c(C(N)=O)ncn2c1=O [Temozolomide]
- Body weight change on Day 27 compared to pre-dosing [1]: +12%
- Tumor growth inhibition rate (TGI, %) at different days post-inoculation ([2]; Day 6): 9.9%
- Tumor growth inhibition rate (TGI, %) at different days post-inoculation ([2]; Day 10): 13.2%
- Tumor growth inhibition rate (TGI, %) at different days post-inoculation ([2]; Day 13): 39.6%
- Tumor growth inhibition rate (TGI, %) at different days post-inoculation ([2]; Day 17): 65.6%
- Tumor growth inhibition rate (TGI, %) at different days post-inoculation ([2]; Day 20): 73.7%
- Tumor growth inhibition rate (TGI, %) at different days post-inoculation ([2]; Day 24): 73.7%
- Tumor growth inhibition rate (TGI, %) at different days post-inoculation ([2]; Day 27): 74.2%
- Tumor weight ([2]; end of dosing period): 0.002 ± 0.001 g
- IRTW% ([2]; tumor weight inhibition rate): 98.34%
